One may read the IC50 as the concentration that gives 50% inhibition. A low value points to inhibition by little substance. As usually defined, the Ki is the equilibrium dissociation constant of an inhibitor or competing ligand from its target. What is called Kd is the constant that tells how readily two partners part at equilibrium. A word on the kinetic solubility: it is solubility judged after dilution from a stock solution rather than from solid. By chromatographic logD is commonly meant a lipophilicity value derived from retention on a column. Low values mean a more hydrophilic compound, high ones a more lipophilic compound.

The target in series [1] is T1, Bromodomain testis-specific protein (Homo sapiens, UniProt Q58F21). The experiment in a line: Binding affinity to BRDt containing BD2 bromodomains (unknown origin) by TR-FRET assay.
For series [2], the target named is Bromodomain-containing protein 4 (Homo sapiens, UniProt O60885). Put plainly: Binding affinity to BRD4 containing BD2 bromodomains (unknown origin) by TR-FRET assay. (In general: Time-resolved FRET reads energy transfer from a long-lived donor to a nearby acceptor.)
In series [3] the target is Transcription initiation factor TFIID subunit 1 (Homo sapiens, UniProt P21675). Put plainly: Binding affinity to TAF1 (unknown origin) by BROMOscan panel based assay.
In series [4] the target is Protein polybromo-1 (Homo sapiens, UniProt Q86U86). The experiment in a line: Binding affinity to PBRM1 in human HUT78 cells incubated for 45 mins by mass spectrometry based bromosphere chemoproteomic assay. Type of series: cell-based.
Series [5] concerns the target Nucleosome-remodeling factor subunit BPTF (Homo sapiens, UniProt Q12830). Put plainly: Binding affinity to BPTF in human HUT78 cells incubated for 45 mins by mass spectrometry based bromosphere chemoproteomic assay. The class given is cell-based.
In series [6] the target is Bromodomain and PHD finger-containing protein 3 (Homo sapiens, UniProt Q9ULD4). The experiment in a line: Binding affinity to BRPF3 (unknown origin) by BROMOscan panel based assay.
The target of series [7] is Transcription initiation factor TFIID subunit 1-like (Homo sapiens, UniProt Q8IZX4). The experiment in a line: Binding affinity to TAF1L (unknown origin) by BROMOscan panel based assay.
For series [8], the target named is T2, Peregrin (Homo sapiens, UniProt P55201).
T2 sequence (P55201 whole entry): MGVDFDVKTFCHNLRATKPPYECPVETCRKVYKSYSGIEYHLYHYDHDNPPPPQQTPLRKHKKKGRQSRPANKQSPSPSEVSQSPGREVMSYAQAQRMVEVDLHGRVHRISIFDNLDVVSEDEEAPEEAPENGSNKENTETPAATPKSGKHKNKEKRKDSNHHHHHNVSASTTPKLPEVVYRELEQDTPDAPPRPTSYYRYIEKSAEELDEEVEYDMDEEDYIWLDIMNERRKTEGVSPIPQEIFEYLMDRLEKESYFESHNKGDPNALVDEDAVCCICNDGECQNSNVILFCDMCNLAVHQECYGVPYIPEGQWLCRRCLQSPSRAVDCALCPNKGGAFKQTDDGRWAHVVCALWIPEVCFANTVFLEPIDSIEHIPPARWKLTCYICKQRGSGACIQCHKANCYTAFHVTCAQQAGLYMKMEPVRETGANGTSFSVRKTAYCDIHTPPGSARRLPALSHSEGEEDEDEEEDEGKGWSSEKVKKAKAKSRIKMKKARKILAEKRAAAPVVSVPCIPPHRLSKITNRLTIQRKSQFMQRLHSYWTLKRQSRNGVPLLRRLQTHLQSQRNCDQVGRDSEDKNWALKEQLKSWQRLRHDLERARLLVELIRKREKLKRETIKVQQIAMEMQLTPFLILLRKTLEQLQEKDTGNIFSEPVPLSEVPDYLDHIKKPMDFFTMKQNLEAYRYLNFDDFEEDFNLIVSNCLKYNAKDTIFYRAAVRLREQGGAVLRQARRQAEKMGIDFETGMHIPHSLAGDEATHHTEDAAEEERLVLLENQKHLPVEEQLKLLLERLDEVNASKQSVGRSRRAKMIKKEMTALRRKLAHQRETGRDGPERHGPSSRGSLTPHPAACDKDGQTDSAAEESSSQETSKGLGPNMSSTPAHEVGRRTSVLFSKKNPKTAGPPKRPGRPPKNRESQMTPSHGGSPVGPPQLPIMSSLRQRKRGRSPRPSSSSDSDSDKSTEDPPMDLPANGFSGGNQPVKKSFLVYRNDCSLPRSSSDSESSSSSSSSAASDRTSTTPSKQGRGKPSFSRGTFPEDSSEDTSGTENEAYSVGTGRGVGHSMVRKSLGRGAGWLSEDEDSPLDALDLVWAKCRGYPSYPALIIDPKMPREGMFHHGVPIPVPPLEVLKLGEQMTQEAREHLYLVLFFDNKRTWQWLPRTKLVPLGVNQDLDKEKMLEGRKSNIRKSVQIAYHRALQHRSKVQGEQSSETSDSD
The experiment in a line: Binding affinity to BRPF1 (unknown origin) by BROMOscan panel based assay.

Series [9] is described as follows: physchem. The note with it: phosphate buffered saline, pH 7.4, solubility.
Description: Solubility of the compound in phosphate buffered saline at pH 7.4 after 1 hr by CLND method
The target in series [10] is Bromodomain-containing protein 1 (Homo sapiens, UniProt O95696). The experiment in a line: Binding affinity to BRPF2 (unknown origin) by BROMOscan panel based assay.
Series [11] has as its target Histone acetyltransferase KAT2B (Homo sapiens, UniProt Q92831). The experiment in a line: Binding affinity to KAT2B in human HUT78 cells incubated for 45 mins by mass spectrometry based bromosphere chemoproteomic assay. Type of series: cell-based.
Series [12] has as its target T3, Bromodomain-containing protein 2 (Homo sapiens, UniProt P25440). The experiment in a line: Binding affinity to BRD2 containing BD1 bromodomains (unknown origin) by TR-FRET assay.
Series [13] in a line: Permeability across phosphatidyl choline membrane at pH 7.4 after 3 hrs by HPLC with UV detection method. Type of series: ADME. The note with it: not told, read-out: permeability.
The target in series [14] is T4, Bromodomain-containing protein 9 (Homo sapiens, UniProt Q9H8M2).
T4 sequence (Q9H8M2 whole entry): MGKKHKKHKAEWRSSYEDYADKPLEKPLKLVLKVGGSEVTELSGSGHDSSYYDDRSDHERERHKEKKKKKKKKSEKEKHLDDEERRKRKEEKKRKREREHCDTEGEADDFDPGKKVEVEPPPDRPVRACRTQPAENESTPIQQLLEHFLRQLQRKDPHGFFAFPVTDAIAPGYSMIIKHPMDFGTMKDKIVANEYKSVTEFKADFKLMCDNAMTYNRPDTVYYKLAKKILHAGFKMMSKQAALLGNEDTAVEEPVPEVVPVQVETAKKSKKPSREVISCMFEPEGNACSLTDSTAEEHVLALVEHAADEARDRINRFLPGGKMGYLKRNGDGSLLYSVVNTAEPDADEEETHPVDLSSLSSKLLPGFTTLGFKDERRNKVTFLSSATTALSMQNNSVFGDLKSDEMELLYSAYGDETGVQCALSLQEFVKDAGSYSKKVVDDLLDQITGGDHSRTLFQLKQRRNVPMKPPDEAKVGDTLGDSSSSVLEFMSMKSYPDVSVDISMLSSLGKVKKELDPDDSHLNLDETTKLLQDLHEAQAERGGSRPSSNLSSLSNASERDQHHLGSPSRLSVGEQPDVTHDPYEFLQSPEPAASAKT
Put plainly: Binding affinity to BRD9 in human HUT78 cells incubated for 45 mins by mass spectrometry based bromosphere chemoproteomic assay. Type of series: cell-based.

For series [15], the target named is T3, Bromodomain-containing protein 2. The experiment in a line: Binding affinity to BRD2 in human HUT78 cells incubated for 45 mins by mass spectrometry based bromosphere chemoproteomic assay. Type of series: cell-based.
The nature of series [16]: Distribution coefficient, log D of the compound at pH 7.4 by chromatographic method. The class given is physicochemical. Particulars: octanol/water.
The target of series [17] is ATPase family AAA domain-containing protein 2B (Homo sapiens, UniProt Q9ULI0). The experiment in a line: Binding affinity to ATAD2B (unknown origin) by BROMOscan panel based assay.
The target of series [18] is T1, Bromodomain testis-specific protein. Put plainly: Binding affinity to BRDt containing BD1 bromodomains (unknown origin) by TR-FRET assay.

T3 sequence (P25440 whole entry): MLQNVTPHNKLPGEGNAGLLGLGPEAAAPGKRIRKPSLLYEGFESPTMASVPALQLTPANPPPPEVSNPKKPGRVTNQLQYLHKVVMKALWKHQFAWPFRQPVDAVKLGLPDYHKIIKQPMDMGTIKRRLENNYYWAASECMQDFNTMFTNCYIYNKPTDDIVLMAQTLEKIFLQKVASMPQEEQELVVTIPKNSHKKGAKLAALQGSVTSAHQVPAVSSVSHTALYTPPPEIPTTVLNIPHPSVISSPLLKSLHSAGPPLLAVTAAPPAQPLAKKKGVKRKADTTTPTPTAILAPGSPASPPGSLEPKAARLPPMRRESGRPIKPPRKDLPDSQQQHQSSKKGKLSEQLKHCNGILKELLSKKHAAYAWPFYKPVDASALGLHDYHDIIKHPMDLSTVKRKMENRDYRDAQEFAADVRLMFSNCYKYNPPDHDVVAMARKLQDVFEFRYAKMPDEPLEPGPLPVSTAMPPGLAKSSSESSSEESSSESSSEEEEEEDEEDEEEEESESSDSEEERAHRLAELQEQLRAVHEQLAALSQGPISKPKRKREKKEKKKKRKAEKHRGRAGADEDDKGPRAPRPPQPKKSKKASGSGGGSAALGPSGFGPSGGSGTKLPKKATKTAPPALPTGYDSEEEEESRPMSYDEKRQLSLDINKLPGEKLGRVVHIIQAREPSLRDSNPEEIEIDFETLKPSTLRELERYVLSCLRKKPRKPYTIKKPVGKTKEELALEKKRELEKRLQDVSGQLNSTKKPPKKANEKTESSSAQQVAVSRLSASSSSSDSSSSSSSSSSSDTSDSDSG
Sequence of Bromodomain and PHD finger-containing protein 3 (Q9ULD4 whole entry): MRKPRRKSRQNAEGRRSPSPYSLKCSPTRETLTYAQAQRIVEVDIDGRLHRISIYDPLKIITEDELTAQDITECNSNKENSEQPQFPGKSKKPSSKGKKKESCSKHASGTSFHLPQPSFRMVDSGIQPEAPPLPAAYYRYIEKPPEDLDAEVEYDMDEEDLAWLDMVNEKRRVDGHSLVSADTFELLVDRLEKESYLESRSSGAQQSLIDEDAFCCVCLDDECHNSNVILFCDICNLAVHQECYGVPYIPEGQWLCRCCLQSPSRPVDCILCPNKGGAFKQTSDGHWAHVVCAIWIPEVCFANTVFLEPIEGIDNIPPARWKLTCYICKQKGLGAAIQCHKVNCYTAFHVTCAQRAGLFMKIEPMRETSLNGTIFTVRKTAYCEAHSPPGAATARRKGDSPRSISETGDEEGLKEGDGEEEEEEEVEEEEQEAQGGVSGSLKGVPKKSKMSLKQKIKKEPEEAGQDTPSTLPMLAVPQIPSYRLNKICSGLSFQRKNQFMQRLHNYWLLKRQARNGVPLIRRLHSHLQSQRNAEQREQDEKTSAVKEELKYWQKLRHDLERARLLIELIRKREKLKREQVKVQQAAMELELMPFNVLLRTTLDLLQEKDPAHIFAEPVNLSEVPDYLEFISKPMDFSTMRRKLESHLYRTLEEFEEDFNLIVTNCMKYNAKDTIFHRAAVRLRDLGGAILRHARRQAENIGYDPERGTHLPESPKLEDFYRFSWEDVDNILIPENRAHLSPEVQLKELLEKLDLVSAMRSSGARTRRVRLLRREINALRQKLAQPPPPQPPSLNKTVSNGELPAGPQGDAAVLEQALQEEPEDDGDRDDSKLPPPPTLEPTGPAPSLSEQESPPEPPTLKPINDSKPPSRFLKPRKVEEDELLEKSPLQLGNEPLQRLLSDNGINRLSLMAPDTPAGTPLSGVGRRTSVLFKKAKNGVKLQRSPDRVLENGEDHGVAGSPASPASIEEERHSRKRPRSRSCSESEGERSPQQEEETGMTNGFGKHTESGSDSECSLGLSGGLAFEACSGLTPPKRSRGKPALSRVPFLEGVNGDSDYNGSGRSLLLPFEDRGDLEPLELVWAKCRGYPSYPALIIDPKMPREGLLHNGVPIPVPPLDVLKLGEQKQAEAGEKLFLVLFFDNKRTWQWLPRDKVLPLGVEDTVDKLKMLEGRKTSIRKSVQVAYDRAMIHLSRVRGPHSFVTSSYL
Sequence of Bromodomain-containing protein 1 (O95696 whole entry): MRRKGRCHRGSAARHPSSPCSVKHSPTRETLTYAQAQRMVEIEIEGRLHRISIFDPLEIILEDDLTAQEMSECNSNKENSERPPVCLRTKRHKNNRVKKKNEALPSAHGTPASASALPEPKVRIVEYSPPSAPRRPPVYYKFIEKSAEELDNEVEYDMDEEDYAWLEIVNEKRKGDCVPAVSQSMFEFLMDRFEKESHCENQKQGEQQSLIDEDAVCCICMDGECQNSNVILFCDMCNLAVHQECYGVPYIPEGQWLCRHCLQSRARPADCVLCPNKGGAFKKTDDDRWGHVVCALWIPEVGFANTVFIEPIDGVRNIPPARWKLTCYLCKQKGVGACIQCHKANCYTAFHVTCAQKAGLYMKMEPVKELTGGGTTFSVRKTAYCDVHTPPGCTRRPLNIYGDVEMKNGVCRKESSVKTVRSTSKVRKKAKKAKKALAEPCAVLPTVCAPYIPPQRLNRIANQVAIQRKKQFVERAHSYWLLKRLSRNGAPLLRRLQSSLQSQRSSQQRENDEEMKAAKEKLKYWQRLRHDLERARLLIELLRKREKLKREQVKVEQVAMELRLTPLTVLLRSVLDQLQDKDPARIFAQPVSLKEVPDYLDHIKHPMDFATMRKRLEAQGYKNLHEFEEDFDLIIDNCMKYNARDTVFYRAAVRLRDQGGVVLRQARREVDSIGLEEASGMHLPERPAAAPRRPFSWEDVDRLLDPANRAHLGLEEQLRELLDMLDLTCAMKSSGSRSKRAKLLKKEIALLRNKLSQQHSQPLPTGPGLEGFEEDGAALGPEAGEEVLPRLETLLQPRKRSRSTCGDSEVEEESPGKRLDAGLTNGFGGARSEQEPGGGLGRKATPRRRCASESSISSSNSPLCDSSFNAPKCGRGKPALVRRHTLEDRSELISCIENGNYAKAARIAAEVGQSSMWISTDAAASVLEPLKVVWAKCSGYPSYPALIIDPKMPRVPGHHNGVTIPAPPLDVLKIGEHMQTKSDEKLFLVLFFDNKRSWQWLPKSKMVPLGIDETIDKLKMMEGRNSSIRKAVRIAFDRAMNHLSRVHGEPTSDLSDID
Sequence of ATPase family AAA domain-containing protein 2B (Q9ULI0 whole entry, the tested form may be a part): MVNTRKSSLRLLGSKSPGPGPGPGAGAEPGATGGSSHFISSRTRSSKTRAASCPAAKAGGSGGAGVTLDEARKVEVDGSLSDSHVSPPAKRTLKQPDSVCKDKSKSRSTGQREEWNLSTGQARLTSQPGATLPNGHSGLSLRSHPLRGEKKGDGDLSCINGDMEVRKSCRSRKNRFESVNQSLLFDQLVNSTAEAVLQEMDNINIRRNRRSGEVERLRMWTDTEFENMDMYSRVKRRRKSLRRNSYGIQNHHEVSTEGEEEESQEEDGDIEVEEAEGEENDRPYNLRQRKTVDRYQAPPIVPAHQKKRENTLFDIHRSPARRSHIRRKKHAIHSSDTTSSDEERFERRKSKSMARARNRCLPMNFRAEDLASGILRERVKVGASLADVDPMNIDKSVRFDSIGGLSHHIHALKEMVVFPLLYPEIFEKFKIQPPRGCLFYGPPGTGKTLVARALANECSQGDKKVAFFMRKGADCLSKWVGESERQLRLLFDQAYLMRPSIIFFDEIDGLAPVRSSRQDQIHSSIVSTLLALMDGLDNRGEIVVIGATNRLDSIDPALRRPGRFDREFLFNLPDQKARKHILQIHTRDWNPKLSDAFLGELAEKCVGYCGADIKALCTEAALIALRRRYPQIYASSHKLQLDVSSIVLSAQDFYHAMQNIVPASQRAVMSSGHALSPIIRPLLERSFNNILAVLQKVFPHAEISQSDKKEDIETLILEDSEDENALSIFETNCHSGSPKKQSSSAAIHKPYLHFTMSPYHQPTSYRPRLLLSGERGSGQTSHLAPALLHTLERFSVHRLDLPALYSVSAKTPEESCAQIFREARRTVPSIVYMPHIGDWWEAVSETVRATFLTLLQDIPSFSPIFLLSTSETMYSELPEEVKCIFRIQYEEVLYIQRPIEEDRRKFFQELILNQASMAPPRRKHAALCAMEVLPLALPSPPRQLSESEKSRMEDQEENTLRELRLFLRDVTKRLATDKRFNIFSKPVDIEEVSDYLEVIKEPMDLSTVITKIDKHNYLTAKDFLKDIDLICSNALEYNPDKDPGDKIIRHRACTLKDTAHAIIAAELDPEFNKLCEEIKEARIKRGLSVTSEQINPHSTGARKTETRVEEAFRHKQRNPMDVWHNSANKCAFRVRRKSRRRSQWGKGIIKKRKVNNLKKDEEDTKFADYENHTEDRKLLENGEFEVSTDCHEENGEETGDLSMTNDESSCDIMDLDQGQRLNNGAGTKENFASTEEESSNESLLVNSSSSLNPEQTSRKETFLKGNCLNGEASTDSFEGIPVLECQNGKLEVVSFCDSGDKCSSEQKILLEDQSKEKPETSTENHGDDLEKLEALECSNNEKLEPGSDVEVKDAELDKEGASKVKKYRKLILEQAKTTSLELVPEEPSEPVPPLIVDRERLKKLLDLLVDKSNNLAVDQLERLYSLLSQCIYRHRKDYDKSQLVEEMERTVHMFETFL

As for `Cc1cncc(-c2cnc(N[C@@H]3CCN(C)C[C@H]3OCC3CCS(=O)(=O)CC3)c3[nH]c(=O)c(C)cc23)c1`, the IC50 is above 50.1 µM in series [1], above 501 µM in [2], above 50.1 µM in [12] and above 50.1 µM in series [18]. Also, the inhibition constant Ki was 0.0501 µM in series [3]; 0.794 µM in series [6]; 0.126 µM in [7]; 5.01 µM in series [8]; 0.398 µM in [10]; 0.0398 µM in series [17]. Besides, the Kd was above 100 µM in [4]; above 100 µM in [5]; above 100 µM in [11]; 15.8 µM in series [14]; 20 µM in series [15]. Besides, in series [9], the kinetic solubility at 1 h was at least 341 µM. The Papp at 3 h in [13] was below 1 ×10⁻⁶ cm/s. In addition, the chromatographic logD in series [16] is 2.3.
